In ChEMBL document CHEMBL1201862, “PubChem BioAssay data set” (2004):
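Assay format: 96-well plates, 48-hour exposure. GI50 marks 50% less growth.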 Active and inactive are the calls of the source. Cut-off read from the data, not from the text of the source: active = GI50 up to about 1.1 µM and inactive = higher.

Experiments:
Experiment in all cases: growth of human tumour cells (NCI), 48 h
HCC 2998 = test system: HCC 2998
RPMI-8226 = test system: RPMI-8226
A549 = test system: A549
SK-MEL-5 = test system: SK-MEL-5
NCI-H460 = test system: NCI-H460
TK-10 = test system: TK-10
Malme-3M = test system: Malme-3M
OVCAR-5 = test system: OVCAR-5
HCT-15 = test system: HCT-15
OVCAR-3 = test system: OVCAR-3
SK-MEL-28 = test system: SK-MEL-28
SF-268 = test system: SF-268
OVCAR-4 = test system: OVCAR-4
HOP-62 = test system: HOP-62
SK-MEL-2 = test system: SK-MEL-2
CAKI-1 = test system: CAKI-1
MCF7 = test system: MCF7
RXF 393 = test system: RXF 393
NCI-H23 = test system: NCI-H23
NCI-H226 = test system: NCI-H226
KM12 = test system: KM12
COLO 205 = test system: COLO 205
Hs-578T = test system: Hs-578T
EKVX = test system: EKVX
SNB-19 = test system: SNB-19
ACHN = test system: ACHN
PC-3 = test system: PC-3
HL-60 = test system: HL-60
SF-295 = test system: SF-295
HOP-92 = test system: HOP-92
UO-31 = test system: UO-31
786-0 = test system: 786-0
IGROV-1 = test system: IGROV-1
NCI-H522 = test system: NCI-H522
U-251 = test system: U-251
K562 = test system: K562
MDA-MB-435 = test system: MDA-MB-435
HT-29 = test system: HT-29
SNB-75 = test system: SNB-75
UACC-62 = test system: UACC-62
SF-539 = test system: SF-539
SR = test system: SR
DU-145 = test system: DU-145
SK-OV-3 = test system: SK-OV-3
UACC-257 = test system: UACC-257
MDA-MB-231 = test system: MDA-MB-231
NCI/ADR-RES = test system: NCI/ADR-RES
OVCAR-8 = test system: OVCAR-8
SN12C = test system: SN12C
MDA-N = test system: MDA-N
LOX IMVI = test system: LOX IMVI
T47D = test system: T47D
BT-549 = test system: BT-549
CCRF-CEM = test system: CCRF-CEM
A498 = test system: A498
HCT-116 = test system: HCT-116
MOLT-4 = test system: MOLT-4
SW-620 = test system: SW-620

Measured: GI50

CC(C)=CCOc1cc(NC(=S)c2ccsc2C)ccc1Cl
> 100 µM: HCT-15
inactive: HCC 2998 3.49 µM | RPMI-8226 15.7 µM | A549 46.7 µM | SK-MEL-5 36.1 µM | NCI-H460 12.4 µM | TK-10 93.5 µM | Malme-3M 49 µM | OVCAR-5 86.7 µM | OVCAR-3 14.1 µM | SK-MEL-28 > 100 µM | SF-268 32.3 µM | OVCAR-4 16.7 µM | HOP-62 21.4 µM | SK-MEL-2 27.4 µM | CAKI-1 > 100 µM | MCF7 15.4 µM | RXF 393 27.9 µM | NCI-H23 17.1 µM | NCI-H226 13.5 µM | KM12 > 100 µM | COLO 205 37.3 µM | Hs-578T 12.3 µM | EKVX 56.8 µM | SNB-19 31.8 µM | ACHN 16.7 µM | PC-3 17.8 µM | HL-60 44.1 µM | SF-295 36 µM | HOP-92 5.87 µM | UO-31 5.85 µM | 786-0 40.2 µM | IGROV-1 4.43 µM | NCI-H522 54.5 µM | U-251 20.7 µM | K562 7.48 µM | MDA-MB-435 > 100 µM | HT-29 > 100 µM | SNB-75 14.1 µM | UACC-62 15.6 µM | SF-539 55.1 µM | SR 18.7 µM | DU-145 75.9 µM | SK-OV-3 24.5 µM | UACC-257 88.1 µM | MDA-MB-231 13.1 µM | NCI/ADR-RES 80.4 µM | OVCAR-8 44.4 µM | SN12C 19 µM | MDA-N > 100 µM | LOX IMVI 30.7 µM | T47D 1.64 µM | BT-549 23.6 µM | CCRF-CEM 39.6 µM | A498 27.3 µM | HCT-116 26.4 µM | MOLT-4 20.2 µM | SW-620 > 100 µM
